According to patent US10087148B2, “Quinazolines as biogenic amine transport modulators” (THE UNITED STATES OF AMERICA AS REPRESENTED BY THE …, priority 2014, dated 2018):

Legend:
[1] = target: serotonin transporter (SERT) (Rattus norvegicus (Rat), UniProt P31652); test: [3H]serotonin (5-HT) uptake inhibition in rat brain synaptosomes; type: biochemical; conditions: for Emax: read-out: SERT Uptake Emax; for 5HT Uptake Emax / EC50: rat brain synaptosomes, 5 nM [3H]serotonin, mean ± SD
Protocol: Uptake inhibition assay for the serotonin transporter was conducted in rat brain synaptosomes as described elsewhere with minor modifications (Rothman et al., Synapse 39, 32-41 (2001)). Freshly removed whole brain minus cerebellum and caudate was homogenized in 10% ice-cold sucrose with 12 strokes of a hand-held Potter-Elvehjem homogenizer followed by centrifugation at 1000×g for 10 min. The supernatants were saved on ice and used immediately. Transporter activity at SERT was assessed using 5 nM [^3H]serotonin. The assay buffer was Krebs-phosphate buffer containing 154.4 mM NaCl, 2.9 mM KCl, 1.1 mM CaCl2, 0.83 mM MgCl2, 5 mM glucose, 1 mg/mL ascorbic acid, and 50 μM pargyline. […] Uptake inhibition assays were conducted at 25° C. and were initiated by adding 100 μL of tissue to 900 μL assay buffer containing test drug and [^3H]serotonin. Test drugs were diluted in assay buffer containing 1 mg/mL bovine serum albumin. Nonspecific uptake was measured by incubating in the presence of 10 μM indatraline. The reactions were stopped after 30 min by rapid vacuum filtration with a cell harvester (BRANDEL) over GF/B filters (Whatman) presoaked in wash buffer maintained at 25° C. (10 mM Tris-HCl, pH 7.4/150 mM NaCl). Filters were rinsed with 6 mL wash buffer and retained tritium was quantified by a MicroBeta liquid scintillation counter (PerkinElmer) after overnight extraction in 0.6 mL of liquid scintillation cocktail (Cytoscint, ICN). The data from three experiments were pooled and fit to a dose-response curve equation (using Kaleidagraph), to yield an Emax and EC50 value.

[2] = target: T1, dopamine transporter (DAT) (Rattus norvegicus (Rat), UniProt P23977); test: [3H]dopamine (DA) uptake inhibition in rat brain (caudate) synaptosomes; type: biochemical; conditions: for DA Uptake Emax / EC50: rat caudate synaptosomes, 5 nM [3H]dopamine, mean ± SD
Protocol: Uptake inhibition assay for the dopamine transporter was conducted in rat brain synaptosomes as described elsewhere with minor modifications (Rothman et al., Synapse 39, 32-41 (2001)). Freshly removed caudate was homogenized in 10% ice-cold sucrose with 12 strokes of a hand-held Potter-Elvehjem homogenizer followed by centrifugation at 1000×g for 10 min. The supernatants were saved on ice and used immediately. Transporter activity was assessed using 5 nM [^3H]dopamine. The assay buffer was Krebs-phosphate buffer containing 154.4 mM NaCl, 2.9 mM KCl, 1.1 mM CaCl2, 0.83 mM MgCl2, 5 mM glucose, 1 mg/mL ascorbic acid, and 50 μM pargyline. The selectivity of the uptake assay for DAT was optimized by including 100 nM citalopram and 100 nM desipramine as blockers of SERT and NET in the sucrose solution and assay buffer. Uptake inhibition assays were conducted at 25° C. and were initiated by adding 100 μl of tissue to 900 μL assay buffer containing test drug and [^3H]dopamine. Test drugs were diluted in assay buffer containing 1 mg/mL bovine serum albumin. Nonspecific uptake was measured by incubating in the presence of 10 μM indatraline. The reactions were stopped after 15 minutes by rapid vacuum filtration with a cell harvester (BRANDEL) over GF/B filters (Whatman) presoaked in wash buffer maintained at 25° C. (10 mM Tris-HCl, pH 7.4/150 mM NaCl). Filters were rinsed with 6 mL wash buffer and retained tritium was quantified by a MicroBeta liquid scintillation counter (PerkinElmer) after overnight extraction in 0.6 mL of liquid scintillation cocktail (Cytoscint, ICN). The data from three experiments were pooled and fit to a dose-response curve equation (using Kaleidagraph), to yield an Emax and EC50 value.
(§1) All of the test compounds were synthesized as described herein. Next, 8-point dose-response curves were generated for each compound (1-20,000 nM) in the [^3H]DA uptake assay. The data from three experiments were pooled and fit to a dose-response curve equation (using KaleidaGraph; Synergy Software, Reading, Pa.) to yield an Emax and IC50 value. […] Selected compounds were also tested for their ability to inhibit [^3H]WIN35428 binding to rat caudate DAT.

[3] = target: T1, dopamine transporter (DAT); test: Dopamine transporter-mediated [3H]MPP+ release (d-amphetamine-induced, shift experiments) in rat caudate synaptosomes; type: biochemical; conditions: [3H]MPP+ release; for Emax: read-out: d-Amphetamine Emax in presence of blocker, blocker concentration per row, mean ± S.D., n = 3; for Apparent Kc: [Blocker]/((EC50-2/EC50-1) − 1)
DAT = DAT (Rattus norvegicus (Rat), UniProt P23977); test: Inhibition of [3H]WIN35428 binding to rat caudate DAT; conditions: [3H]WIN35428, mean ± S.D., n = 3; for IC50: unit as printed in head (text gives 1100 nM where table prints 1.1)
Protocol: as §1, with “Next, 8-point dose-response curves were generated for each compound (1-20,000 nM) in the [^3H]DA uptake assay.” left out

[4] = target: norepinephrine transporter (NET) (Rattus norvegicus, UniProt Q63380); test: [3H]norepinephrine (NE) uptake inhibition in rat brain synaptosomes; type: biochemical; conditions: for Emax: read-out: NET Uptake Emax; for IC50: read-out: NET Uptake IC50, mean ± S.D., n = 3; for NE Uptake Emax / EC50: rat brain synaptosomes, 10 nM [3H]norepinephrine, mean ± SD; for EC50: read-out: NE Uptake EC50
Protocol: Uptake inhibition assay for the norepinephrine transporter was conducted in rat brain synaptosomes as described elsewhere with minor modifications (Rothman et al., Synapse 39, 32-41 (2001)). Freshly removed whole brain minus cerebellum and caudate was homogenized in 10% ice-cold sucrose with 12 strokes of a hand-held Potter-Elvehjem homogenizer followed by centrifugation at 1000×g for 10 minutes. The supernatants were saved on ice and used immediately. Transporter activity at NET was assessed using 10 nM [^3H]norepinephrine. The assay buffer was Krebs-phosphate buffer containing 154.4 mM NaCl, 2.9 mM KCl, 1.1 mM CaCl2, 0.83 mM MgCl2, 5 mM glucose, 1 mg/mL ascorbic acid, and 50 μM pargyline. […] Uptake inhibition assays were conducted at 37° C. and were initiated by adding 100 μL of tissue to 900 μL assay buffer containing test drug and [^3H]norepinephrine. Test drugs were diluted in assay buffer containing 1 mg/mL bovine serum albumin. Nonspecific uptake was measured by incubating in the presence of 10 μM indatraline. The reactions were stopped after 10 minutes by rapid vacuum filtration with a cell harvester (BRANDEL) over GF/B filters (Whatman) presoaked in wash buffer maintained at 25° C. (10 mM Tris-HCl, pH 7.4/150 mM NaCl). Filters were rinsed with 6 mL wash buffer and retained tritium was quantified by a MicroBeta liquid scintillation counter (PerkinElmer) after overnight extraction in 0.6 mL of liquid scintillation cocktail (Cytoscint, ICN). The data from three experiments were pooled and fit to a dose-response curve equation (using Kaleidagraph), to yield an Emax and EC50 value.

[5] = mean ± S.D., n = 3, read-out: DAT Uptake Emax
[6] = values in Table 9, read-out: Emax for DAT Uptake Inhibition

Chain of norepinephrine transporter (NET) (Q63380 1-617): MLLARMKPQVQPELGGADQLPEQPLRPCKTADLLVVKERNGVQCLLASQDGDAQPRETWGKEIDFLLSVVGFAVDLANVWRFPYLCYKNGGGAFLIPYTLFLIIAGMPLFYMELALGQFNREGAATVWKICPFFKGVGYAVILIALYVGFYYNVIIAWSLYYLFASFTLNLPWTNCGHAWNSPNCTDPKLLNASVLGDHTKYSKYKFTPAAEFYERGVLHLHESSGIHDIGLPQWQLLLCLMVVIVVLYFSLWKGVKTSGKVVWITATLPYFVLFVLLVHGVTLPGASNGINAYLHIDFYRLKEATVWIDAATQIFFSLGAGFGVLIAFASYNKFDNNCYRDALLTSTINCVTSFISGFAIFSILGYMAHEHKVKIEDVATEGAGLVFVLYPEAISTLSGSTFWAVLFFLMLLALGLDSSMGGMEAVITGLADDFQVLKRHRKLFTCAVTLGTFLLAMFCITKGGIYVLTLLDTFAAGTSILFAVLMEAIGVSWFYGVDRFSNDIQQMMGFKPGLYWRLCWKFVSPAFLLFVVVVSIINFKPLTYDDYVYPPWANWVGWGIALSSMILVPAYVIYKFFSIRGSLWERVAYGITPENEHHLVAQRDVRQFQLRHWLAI
Chain of serotonin transporter (SERT) (P31652 whole entry): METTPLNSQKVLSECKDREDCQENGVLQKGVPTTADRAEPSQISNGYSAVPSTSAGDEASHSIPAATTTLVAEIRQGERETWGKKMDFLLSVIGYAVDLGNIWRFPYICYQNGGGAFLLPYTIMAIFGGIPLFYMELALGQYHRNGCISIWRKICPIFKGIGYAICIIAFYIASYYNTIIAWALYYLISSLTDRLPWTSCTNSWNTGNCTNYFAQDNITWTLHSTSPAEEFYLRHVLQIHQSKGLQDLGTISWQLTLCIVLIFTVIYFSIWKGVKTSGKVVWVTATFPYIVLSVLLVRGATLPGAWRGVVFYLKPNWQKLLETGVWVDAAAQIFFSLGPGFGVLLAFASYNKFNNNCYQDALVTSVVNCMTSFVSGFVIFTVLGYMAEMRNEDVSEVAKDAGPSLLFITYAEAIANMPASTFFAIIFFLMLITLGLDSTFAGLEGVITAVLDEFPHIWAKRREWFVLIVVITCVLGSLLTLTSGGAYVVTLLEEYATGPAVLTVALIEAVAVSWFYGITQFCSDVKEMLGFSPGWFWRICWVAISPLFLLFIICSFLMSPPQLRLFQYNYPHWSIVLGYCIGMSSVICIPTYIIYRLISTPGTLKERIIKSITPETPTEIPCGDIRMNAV
T1 sequence (P23977 whole entry): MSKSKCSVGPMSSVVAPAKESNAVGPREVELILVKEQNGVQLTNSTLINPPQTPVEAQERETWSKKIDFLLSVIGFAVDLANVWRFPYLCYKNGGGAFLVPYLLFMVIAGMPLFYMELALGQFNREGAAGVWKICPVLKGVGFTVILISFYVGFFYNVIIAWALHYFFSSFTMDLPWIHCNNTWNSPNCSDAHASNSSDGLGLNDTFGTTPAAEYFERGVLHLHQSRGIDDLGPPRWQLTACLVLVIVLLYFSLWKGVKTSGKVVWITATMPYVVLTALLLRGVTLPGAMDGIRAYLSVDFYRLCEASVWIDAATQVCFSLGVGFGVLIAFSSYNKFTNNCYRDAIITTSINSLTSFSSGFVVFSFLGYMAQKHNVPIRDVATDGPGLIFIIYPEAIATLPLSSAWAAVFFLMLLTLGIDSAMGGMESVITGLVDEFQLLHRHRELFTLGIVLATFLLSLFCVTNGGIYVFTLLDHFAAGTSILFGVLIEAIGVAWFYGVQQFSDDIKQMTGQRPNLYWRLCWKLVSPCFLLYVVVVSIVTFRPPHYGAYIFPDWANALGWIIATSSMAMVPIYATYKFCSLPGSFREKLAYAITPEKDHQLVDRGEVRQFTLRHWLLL
Chain of DAT (P23977 whole entry): as above

CS(=O)(=O)Nc1ccc(-c2nc(NCC(c3ccccc3)c3ccccc3)c3ccccc3n2)cc1 [Compound 50, N-(4-(4-((2,2-diphenylethyl)amino)quinazolin-2-yl)phenyl)methanesulfonamide]
Emax ([1]; mean ± S.D., n = 3): 56 ± 2%
Emax [2, 5]: 70 ± 2%
Emax [2, 6]: 70%
Emax [3]: 102 ± 2%
Emax (DAT): 65 ± 6%
Emax [4]: 71 ± 2%
IC50 [4]: 90 ± 15 nM

CN(C)c1ncc(-c2nc(NCCC(c3ccccc3)c3ccccc3)c3ccccc3n2)cn1 [SRI-29212]
IC50 ([1]; mean ± S.D., n = 3): 3800 ± 1640 nM
Emax ([1]; mean ± S.D., n = 3): 50 ± 7%
IC50 ([2]; mean ± S.D., n = 3): 672 ± 204 nM
Emax [2, 5]: 67 ± 4%
Emax [2, 6]: 67%
Apparent Kc [3]: 64.58 µM
Emax [3]: 103 ± 2%
Emax (DAT): 72 ± 4%
IC50 (DAT): 2200 ± 500 nM
Emax [4]: 64 ± 5%
IC50 [4]: 8130 ± 2270 nM

c1ccc(C(CNc2nc(-c3cnc4nccn4c3)nc3ccccc23)c2ccncc2)cc1 (stereo not shown) [SRI-30810]
Emax ([1]; mean ± S.D., n = 3): 51 ± 2%
Emax [2, 5]: 64 ± 1%
Emax [2, 6]: 64%
Apparent Kc [3]: 1.2 µM
Emax [3]: 104 ± 5%
Emax (DAT): 25 ± 2%
IC50 (DAT): 820 ± 360 nM
Emax [4]: 69 ± 2%
IC50 [4]: 60 ± 10 nM

Cc1cc(NS(C)(=O)=O)ccc1-c1nc(NCC(c2ccccc2)c2ccncc2)c2ccccc2n1 (stereo not shown) [Compound 29, N-(3-methyl-4-(4-((2-phenyl-2-(pyridin-4-yl)ethyl)amino)quinazolin-2-yl)phenyl)methanesulfonamide]
Emax ([1]; mean ± S.D., n = 3): 58 ± 3%
5HT Uptake Emax [1]: 58 ± 3 % I
EC50 [1]: 8 ± 2.8 nM
Emax [2, 5]: 74 ± 4%
DA Uptake Emax [2]: 74 ± 4 % I
EC50 [2]: 7.4 ± 2 nM
Emax (DAT): 72 ± 7%
IC50 (DAT): 3150 ± 1110 nM
NE Uptake Emax [4]: 71 ± 3 % I
EC50 [4]: 31 ± 7 nM
Emax [4]: 71 ± 3%
IC50 [4]: 31 ± 7 nM

CNc1ncc(-c2nc(NCC(c3ccccc3)c3ccccc3)c3ccccc3n2)cn1 [SRI-29554]
Emax ([1]; mean ± S.D., n = 3): 60 ± 3%
Emax [2, 5]: 71 ± 1%
Emax (DAT): 59 ± 6%
IC50 (DAT): 980 ± 460 nM
Emax [4]: 78 ± 2%
IC50 [4]: 179 ± 27 nM

Cc1cc(NS(C)(=O)=O)ccc1-c1nc(NCC(c2ccccc2)c2ccccc2)c2ccccc2n1 [Compound 52, N-(4-(4-((2,2-diphenylethyl)amino)quinazolin-2-yl)-3-methylphenyl)methanesulfonamide]
Emax ([1]; mean ± S.D., n = 3): 50 ± 2%
Emax [2, 5]: 60 ± 2%
Emax (DAT): 60 ± 7%
Emax [4]: 65 ± 3%
IC50 [4]: 144 ± 30 nM

OC(CNc1nc(-c2cnc3nccn3c2)nc2ccccc12)(c1ccccc1)c1ccccc1 [SRI-30508]
Emax ([1]; mean ± S.D., n = 3): 56 ± 1%
Emax [2, 5]: 65 ± 1%
Emax (DAT): 34 ± 3%
IC50 (DAT): 150 ± 90 nM
Emax [4]: 76 ± 9%
IC50 [4]: 69 ± 18 nM

c1ccc(C(CNc2nc(-c3ccc4nccn4c3)nc3ccccc23)C2CCCCC2)cc1 (stereo not shown) [SRI-30513]
Emax ([1]; mean ± S.D., n = 3): 59 ± 4%
Emax [2, 5]: 72 ± 2%
Emax (DAT): 50 ± 4%
IC50 (DAT): 2970 ± 1030 nM
Emax [4]: 65 ± 4%
IC50 [4]: 153 ± 55 nM

CN(C)c1ncc(-c2nc(NCC(O)(c3ccccc3)c3ccccc3)c3ccccc3n2)cn1 [SRI-29982]
Emax ([1]; mean ± S.D., n = 3): 51 ± 1%
Emax [2, 5]: 73 ± 2%
Emax (DAT): 47 ± 6%
IC50 (DAT): 2460 ± 1210 nM
Emax [4]: 71 ± 2%
IC50 [4]: 259 ± 41 nM

c1ccc(C(CNc2nc(-c3ccc4nccn4c3)nc3ccccc23)c2cccnc2)cc1 (stereo not shown) [SRI-30946]
Emax ([1]; mean ± S.D., n = 3): 59 ± 3%
Emax [2, 5]: 70 ± 2%
Emax (DAT): 44 ± 3%
IC50 (DAT): 1170 ± 320 nM
Emax [4]: 75 ± 3%
IC50 [4]: 78 ± 17 nM

c1ccc(C(CNc2nc(-c3cnc4nccn4c3)nc3ccccc23)c2ccccn2)cc1 (stereo not shown) [SRI-30507]
Emax ([1]; mean ± S.D., n = 3): 54 ± 2%
Emax [2, 5]: 71 ± 2%
Emax (DAT): 62 ± 7%
IC50 (DAT): 4800 ± 1810 nM
Emax [4]: 77 ± 2%
IC50 [4]: 132 ± 16 nM

CSc1ncc(-c2nc(NCC(c3ccccc3)c3ccccc3)c3ccccc3n2)cn1 [SRI-29338]
Emax ([1]; mean ± S.D., n = 3): 52 ± 3%
Emax [2, 5]: 71 ± 2%
Emax (DAT): 63 ± 4%
IC50 (DAT): 1180 ± 930 nM
Emax [4]: 62 ± 3%
IC50 [4]: 204 ± 47 nM

OC(CNc1nc(-c2ccc3[nH]ccc3c2)nc2ccccc12)(c1ccccc1)c1ccccc1 [SRI-29983]
Emax ([1]; mean ± S.D., n = 3): 57 ± 2%
Emax [2, 5]: 70 ± 2%
Emax (DAT): 55 ± 3%
IC50 (DAT): 1290 ± 340 nM
Emax [4]: 73 ± 6%
IC50 [4]: 203 ± 79 nM

CS(=O)(=O)Nc1ccc(-c2nc(NCC(c3ccccc3)c3ccccc3)c3ccccc3n2)c(Cl)c1 [Compound 53, N-(3-chloro-4-(4-((2,2-diphenylethyl)amino)quinazolin-2-yl)phenyl)methanesulfonamide]
Emax ([1]; mean ± S.D., n = 3): 51 ± 2%
Emax [2, 5]: 67 ± 1%
Emax (DAT): 30 ± 3%
Emax [4]: 67 ± 2%
IC50 [4]: 47 ± 10 nM

CS(=O)(=O)Nc1ccc(-c2nc(NCC(O)(c3ccccc3)c3ccccc3)c3ccccc3n2)cc1 [Compound 4, N-(4-(4-((2-hydroxy-2,2-diphenylethyl)amino)quinazolin-2-yl)phenyl)methanesulfonamide]
Emax ([1]; mean ± S.D., n = 3): 55 ± 3%
5HT Uptake Emax [1]: 55 ± 3 % I
EC50 [1]: 50 ± 14 nM
Emax [2, 5]: 70 ± 2%
DA Uptake Emax [2]: 70 ± 2 % I
EC50 [2]: 11 ± 2 nM
Emax (DAT): 47 ± 7%
IC50 (DAT): 970 ± 650 nM
NE Uptake Emax [4]: 70 ± 2 % I
EC50 [4]: 426 ± 49 nM
Emax [4]: 70 ± 2%
IC50 [4]: 426 ± 49 nM

Cn1cc2cc(-c3nc(NCC(c4ccccc4)c4ccccc4)c4ccccc4n3)ccc2n1 [SRI-29776]
Emax ([1]; mean ± S.D., n = 3): 61 ± 2%
Emax [2, 5]: 69 ± 2%
Emax (DAT): 58 ± 3%
IC50 (DAT): 6090 ± 970 nM
Emax [4]: 71 ± 3%
IC50 [4]: 229 ± 43 nM
